Laboratory results taken from US11130780B2, “Inhibitors of growth factor activation enzymes” (Washington University, priority 2015, dated 2021).
Residues, ends and D or L forms follow the SMILES beside them. *: point of attachment. ACC = NC(=O)Cc1cc(=O)oc2cc(N*)ccc12

Columns and labels:
Format in all cases: biochemical
hepsin [1] = target: T1, hepsin (Homo sapiens, UniProt P05981); assay: P1 substrate specificity using Ac-Ala-Arg-Leu-P1-ACC individual substrate library, hepsin; conditions: substrate 5 μM; best amino acid set to 100%
T1 construct: purchased R&D Systems 4776-SE-010
T1 sequence (P05981 163-417 limits assumed): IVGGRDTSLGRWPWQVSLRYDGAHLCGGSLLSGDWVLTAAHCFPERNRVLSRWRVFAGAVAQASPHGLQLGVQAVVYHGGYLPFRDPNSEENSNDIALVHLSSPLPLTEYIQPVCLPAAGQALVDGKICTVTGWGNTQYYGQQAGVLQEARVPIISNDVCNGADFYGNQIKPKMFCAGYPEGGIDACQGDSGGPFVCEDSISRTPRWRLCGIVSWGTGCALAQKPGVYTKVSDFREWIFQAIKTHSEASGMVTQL
T1 sequence (P05981 45-162 partner limits assumed): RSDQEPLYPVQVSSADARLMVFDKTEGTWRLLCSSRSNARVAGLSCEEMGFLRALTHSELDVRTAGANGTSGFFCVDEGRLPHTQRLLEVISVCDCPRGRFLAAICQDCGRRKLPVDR
Procedure: (§1) Recombinant human hepsin (10 μg in 20 uL, 4776-SE-010, R&D Systems) was added to the 100 μL of activation buffer (0.1 M Tris, 0.15 M NaCl, 0.01 M CaCl2, 0.05% TRITON-X, pH=8.0) and incubated at 37° C. for 24 hours (hepsin concentration in activation buffer 2 μM). Once activated hepsin was diluted in assay buffer (0.05 M Tris, pH=9.0) to the final concentration of 4 nM and incubated at 37° C. for 15 minutes before added to a substrate.
(§2) The protocol for both enzymes activation and incubation are as the same as in HyCoSuL screening. The P1 individual substrate library was used at the final concentration of 5 μM. The total time of the assay was 30 min, however only linear portions of the progress curve (5-15 minutes) were used for velocity (RFU/s) calculations. Each screening for hepsin either HGFA was repeated 3-times and the average value for each measurement was used to create the substrate specificity matrix.

HGFA [2] = target: T2, HGFA (Homo sapiens, UniProt Q04756); assay: P1 substrate specificity using Ac-Ala-Arg-Leu-P1-ACC individual substrate library, HGFA; conditions: substrate 5 μM; best amino acid set to 100%
T2 sequence (Q04756 408-655 limits assumed): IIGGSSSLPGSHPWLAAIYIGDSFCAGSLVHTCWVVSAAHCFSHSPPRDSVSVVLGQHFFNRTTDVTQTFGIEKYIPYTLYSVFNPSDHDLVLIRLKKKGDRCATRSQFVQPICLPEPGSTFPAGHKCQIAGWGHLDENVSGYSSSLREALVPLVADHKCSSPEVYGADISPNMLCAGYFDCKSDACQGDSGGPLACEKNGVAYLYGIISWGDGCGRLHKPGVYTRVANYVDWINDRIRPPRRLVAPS
T2 sequence (Q04756 373-407 partner limits assumed): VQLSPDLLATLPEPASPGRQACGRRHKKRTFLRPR
Procedure: (§3) HFGA enzyme was diluted in the assay buffer (0.15 M NaCl, 0.025 M Tris, 0.005 M CaCl2, pH=8.0) to the final concentration of 10-20 nM (depending of sublibrary) and incubated at 25° C. for 30 minutes before added to a substrate.
as §2

hepsin [3] = target: T1, hepsin; assay: P4-P2 substrate specificity using HyCoSuL, hepsin; set-up: concentration or dose not given beside the values; conditions: HyCoSuL substrate library; for P2 Position % Activity Hepsin: amino acid fixed at P2 position; for P3 Position % Activity Hepsin: amino acid fixed at P3 position; for P4 Position % Activity Hepsin: amino acid fixed at P4 position
Procedure: (§4) Each of the P4, P3, and P2 sublibraries were screened at the 100 μM concentration with hepsin either HGFA in a 100 μL final volume per well (99 μL of protease in buffer+1 μL of 10 mM substrates mixture). The total time of the assay was 30 minutes, however only linear portions of the progress curve (5-15 minutes) were used for velocity (RFU/s) calculations. Each sublibrary screening was repeated at least 3-times and the average value calculated from each measurement was used to create the substrate specificity matrix—the best recognized amino acid in each position was set to 100%, and other amino acids were adjusted accordingly.
as §1

HGFA [4] = target: T2, HGFA; assay: P4-P2 substrate specificity using HyCoSuL, HGFA; set-up: P3 Position % Activity HGFA / P2 Position % Activity HGFA: concentration or dose not given beside the values; P4 Position % Activity HGFA: tested at 100 µM; conditions: HyCoSuL substrate library; for P2 Position % Activity HGFA: amino acid fixed at P2 position; for P3 Position % Activity HGFA: amino acid fixed at P3 position; for P4 Position % Activity HGFA: amino acid fixed at P4 position
Procedure: as §4, §3

Compound	% activity, P1 position, Hepsin (hepsin [1]) [%]	% activity, P1 position, HGFA (HGFA [2]) [%]	P2 Position % Activity Hepsin (hepsin [3]) [%]	P3 Position % Activity Hepsin (hepsin [3]) [%]	P4 Position % Activity Hepsin (hepsin [3]) [%]	P2 Position % Activity HGFA (HGFA [4]) [%]	P3 Position % Activity HGFA (HGFA [4]) [%]	P4 Position % Activity HGFA (HGFA [4]) [%]
D-Ala	0.00	0.00	0.00	48.09	18.44	0.00	9.84	7.11
D-Asp	0.05	0.00	0.00	17.18	1.98	0.00	5.37	2.25
D-Gln	0.00	0.00	0.00	97.80	20.13	0.00	13.84	8.03
D-Glu	0.00	0.00	0.00	34.55	2.98	0.00	3.61	2.62
D-Lys	0.23	0.00	0.00	64.56	49.84	0.00	21.11	17.66
D-Ser	0.02	0.00	11.55	54.84	21.84	0.00	10.86	7.94
D-Thr	0.24	0.00	0.00	36.69	25.74	0.00	6.45	8.61
D-Tyr	0.23	0.00	0.00	29.94	12.66	0.00	17.32	10.09
L-Dap	0.03	0.00	10.01	48.71	35.65	1.49	24.27	13.31
L-Met(O)	0.00	0.00	11.40	68.16	22.86	1.68	16.63	6.64
L-Nle	0.07	0.00	62.04	24.09	40.93	45.52	19.15	11.76
L-Orn	0.00	0.00	78.48	79.70	84.52	0.00	54.04	20.23

More lines, now with the values ahead:

% activity, P1 position, Hepsin (hepsin [1]) [%]	% activity, P1 position, HGFA (HGFA [2]) [%]	P2 Position % Activity Hepsin (hepsin [3]) [%]	P3 Position % Activity Hepsin (hepsin [3]) [%]	P4 Position % Activity Hepsin (hepsin [3]) [%]	P2 Position % Activity HGFA (HGFA [4]) [%]	P3 Position % Activity HGFA (HGFA [4]) [%]	P4 Position % Activity HGFA (HGFA [4]) [%]	Compound
100.00	100.00	57.23	70.75	80.32	2.08	43.98	23.62	CC(=O)N[C@@H](C)C(=O)N[C@@H](CCCNC(=N)N)C(=O)N[C@@H](CC(C)C)C(=O)N[C@@H](CCCNC(=N)N)C(=O)Nc1ccc2c(CC(N)=O)cc(=O)oc2c1 [Ac-Ala-Arg-Leu-Arg-ACC] (Ac-ARLR-{ACC})
0.00	0.00	0.00	38.75	18.48	0.00	15.16	7.38	D-Asn
0.00	0.00	0.00	20.14	24.76	0.00	7.08	10.56	D-Leu
	0.00	0.00	24.92	13.15	0.00	15.22	8.13	D-Phe
1.08	0.00	0.00	38.88	20.45	0.00	4.96	10.30	D-Pro
0.50	0.00	0.00	24.90	1.48	0.00	87.59	7.65	D-Trp
0.42	0.00	32.27	29.53	36.68	6.32	13.41	6.44	L-Cit
0.00	0.00	38.67	4.70	37.81	3.95	2.18	10.66	L-Hyp
0.14	0.00	58.40	25.85	41.99	39.80	17.60	11.78	L-Nva
0.24	0.00	57.96	47.00	56.24	5.83	100.00	22.07	L-hArg
